This note sets out measurements from patent US4029799A, “Certain analgesically active substituted benzyl pyridine compounds” (Laboratorios Made, S.A., priority 1975, dated 1977).

SMILES strings stand for the structures.

Series [1] concerns female albino I.C.R. Swiss mice. Kind of series: Analgesic activity, Hot Plate Test at 55° C. The series is classed as in vivo. The settings on record: for Jump-off time: 30 minutes after administration, average ± standard mean error, control 77 ± 9.272. As for the experimental part: the analgesic activity of 2-(3,4,5-trimethoxybenzyl)-3,4-dimethylpyridine compound (I) was investigated in female albino I.C.R. Swiss mice weighing 24± 2 g. For this the Hot Plate Test was used at 55° C. 4 groups of mice each comprising 10 animals, were assembled. The distribution of the groups was according to the following scheme:-
Group 1-- Control - 0.2 ml of distilled H2 O
Group 2-- Compound I-0.2 ml of a solution of 2-(3,4,5-trimethoxybenzyl)-3,4-dimethylpyridine (I), 3 mg/ml.
Group 3-- Compound I-0.2 ml of a solution of 2-(3,4,5-trimethoxybenzyl)-3,4-dimethylpyridine (I), 6 mg/ml.
Group 4-- Dextropropoxyphene - 0.2 ml of a solution of dextropropoxyphene, 6 mg/ml.
The products were injected intraperitoneally, and the measurements of analgesia were made 30 minutes after the administration of the drugs. Note was taken of the time taken for an animal to jump off the hot plate.

For another series, the system named is I.C.R. Swiss mice. Kind of series: Acute toxicity (i.p.), method of Lichfield and Wilcoxon. It is filed as in vivo, both sexes. The procedure:
(§1) acute toxicity studies were carried out in I.C.R. Swiss mice weighing 24± 2 g, of both sexes. The products were administered intraperitoneally (i.p.). Acute toxicity was calculated by the method of Lichfield and Wilcoxon.

Assay in series [2]: as above
The series is classed as in vivo, I.C.R. Swiss mice, both sexes. Particulars: mouse, in vivo, ip, mice, read-out: Lethal dose 50 (LD50). As for the experimental part: as §1

What is called LD50 is the dose at which mortality reaches 50%. In the case of `COc1cc(Cc2nccc(C)c2C)cc(OC)c1OC` [Compound I, 2-(3,4,5-trimethoxybenzyl)-3,4-dimethylpyridine], the “Jump-off time” value was found to be 77 ± 8.203 s in series [1] (25 mg/kg i.p.) and 133.5 ± 12.581 s in series [1] (50 mg/kg i.p.). In addition, the “Significance (jump-off time)” value in series [1] (25 mg/kg i.p., N.S. or p value) is “N.S”. For the same molecule, in series [1] (for equal doses, Hot Plate Test), the “analgesic activity compared with d-propoxyphene” value is listed as “more analgesic than d-propoxyphene”. Moreover, the “therapeutic index compared with dextropropoxyphene” value in series [1] (from analgesia and acute toxicity in mice) was “greater than that of dextropropoxyphene”. The “toxicity compared with d-propoxyphene” value with I.C.R. Swiss mice is recorded as “less toxic”. In addition, in series [2], the LD50 worked out at 250 mg/kg.
`CCC(=O)O[C@](Cc1ccccc1)(c1ccccc1)[C@H](C)CN(C)C` [Dextropropoxyphene, reference compound]: in series [1] (50 mg/kg i.p.), the “Jump-off time” value is 102.4 ± 10.302 s.
